In ChEMBL document CHEMBL4619760, “Anti-inflammatory Efficacy of Combined Natural Alkaloid Berberine and S1PR Modulator Fingolimod at Low Doses in Ulcerative Colitis Preclinical Models” (J Nat Prod, 2020):
The source made the active and inactive calls. The rule behind the calls is not given here.

Legend:
[1] = tested on: Mus musculus; assay: (§1) Anti-colitis activity against DSS-induced C57BL/6 mouse model of subchronic relapsing colitis assessed as reduction in stool bleeding score at 0.15 mg/kg, po administered once daily for 14 days starting from day 5 post DSS-challenge cotreated with 20 mg/kg berberine and measured after day 12 to day 18; type: functional, organism-based
[2] = tested on: Mus musculus; assay: Anti-colitis activity against DSS-induced C57BL/6 mouse model of subchronic relapsing colitis assessed as reduction in disease activity index at 0.15 mg/kg, po administered once daily for 14 days starting from day 5 post DSS-challenge cotreated with 20 mg/kg berberine measured after day 12 to day 18; type: functional, organism-based
[3] = tested on: Mus musculus; assay: Anti-colitis activity against DSS-induced C57BL/6 mouse model of subchronic relapsing colitis assessed as reduction in DSS-induced colon shortening at 0.3 mg/kg, po administered once daily for 14 days starting from day 5 post DSS-challenge; type: functional, organism-based
[4] = tested on: Mus musculus; assay: as §1, with “DSS-induced colon shortening” for “stool bleeding score”; type: functional, organism-based
[5] = tested on: Mus musculus; assay: Anti-colitis activity against DSS-induced C57BL/6 mouse model of subchronic relapsing colitis assessed as reduction in spleen swelling at 0.15 mg/kg, po administered once daily for 14 days starting from day 5 post DSS-challenge cotreated with 20 mg/kg berberine and measured after day 12 to day 18; type: functional, organism-based
[6] = tested on: Mus musculus; assay: Anti-colitis activity against DSS-induced C57BL/6 mouse model of chronic relapsing colitis assessed as reduction in stool consistency score at 0.3 mg/kg, po administered once daily for 30 days starting from day 13 post DSS-challenge measured on day 43; type: functional, organism-based
[7] = tested on: Mus musculus; assay: Anti-colitis activity against DSS-induced C57BL/6 mouse model of chronic relapsing colitis assessed as reduction in stool bleeding at 0.3 mg/kg, po administered once daily for 30 days starting from day 13 post DSS-challenge measured on day 43; type: functional, organism-based
[8] = tested on: Mus musculus; assay: Anti-colitis activity against DSS-induced C57BL/6 mouse model of chronic relapsing colitis assessed as reduction in disease activity index at 0.3 mg/kg, po administered once daily for 30 days starting from day 13 post DSS-challenge and measured on day 43; type: functional, organism-based
[9] = tested on: Mus musculus; assay: Anti-colitis activity against DSS-induced C57BL/6 mouse model of chronic relapsing colitis assessed as reduction in stool consistency score at 0.15 mg/kg, po administered once daily for 30 days starting from day 13 post DSS-challenge cotreated with 20 mg/kg berberine measured on day 24; type: functional, organism-based
[10] = tested on: Mus musculus; assay: Anti-colitis activity against DSS-induced C57BL/6 mouse model of chronic relapsing colitis assessed as reduction in stool bleeding at 0.15 mg/kg, po administered once daily for 30 days starting from day 13 post DSS-challenge cotreated with 20 mg/kg berberine and measured on day 38; type: functional, organism-based
[11] = tested on: Mus musculus; assay: Anti-colitis activity against DSS-induced C57BL/6 mouse model of chronic relapsing colitis assessed as reduction in disease activity index at 0.15 mg/kg, po administered once daily for 30 days starting from day 13 post DSS-challenge cotreated with 20 mg/kg berberine and measured on day 24; type: functional, organism-based
[12] = tested on: Mus musculus; assay: Anti-colitis activity against DSS-induced C57BL/6 mouse model of chronic relapsing colitis assessed as reversal of DSS-induced colon shortening at 0.3 mg/kg, po administered once daily for 30 days starting from day 13 post DSS-challenge; type: functional, organism-based
[13] = tested on: Mus musculus; assay: Anti-colitis activity against DSS-induced C57BL/6 mouse model of subchronic relapsing colitis assessed as reversal of DSS-induced colon shortening at 0.15 mg/kg, po administered once daily for 30 days starting from day 13 post DSS-challenge cotreated with 20 mg/kg berberine; type: functional, organism-based
[14] = tested on: Mus musculus; assay: Anti-colitis activity against DSS-induced C57BL/6 mouse model of subchronic relapsing colitis assessed as reduction in DSS-induced colon swelling at 0.15 mg/kg, po administered once daily for 30 days starting from day 13 post DSS-challenge cotreated with 20 mg/kg berberine; type: functional, organism-based
[15] = tested on: Mus musculus; assay: Anti-colitis activity against DSS-induced C57BL/6 mouse model of chronic relapsing colitis assessed as reduction in DSS-induced spleen swelling at 0.15 mg/kg, po administered once daily for 30 days starting from day 13 post DSS-challenge cotreated with 20 mg/kg berberine; type: functional, organism-based
[16] = tested on: Mus musculus; assay: Anti-colitis activity against DSS-induced C57BL/6 mouse model of chronic relapsing colitis assessed as reduction in DSS-induced multiple erosive lesions in colon at 0.15 mg/kg, po administered once daily for 30 days starting from day 13 post DSS-challenge cotreated with 20 mg/kg berberine by hematoxylin and eosin staining based light microscopic analysis; type: functional, organism-based
[17] = (§2) Toxicity in DSS-induced C57BL/6 mouse model of chronic relapsing colitis assessed as induction of abnormalities in brain at 0.3 mg/kg, po administered once daily for 30 days starting from day 13 post DSS-challenge by hematoxylin and eosin staining based light microscopic analysis; type: organism-based; conditions: in vivo, 720 h
[18] = as §2, with “heart” for “brain”, “0.15” for “0.3”, “DSS-challenge cotreated with 20 mg/kg berberine” for “DSS-challenge”; type: organism-based; conditions: in vivo, 720 h
[19] = as §2, with “liver” for “brain”, “0.15” for “0.3”, “DSS-challenge cotreated with 20 mg/kg berberine” for “DSS-challenge”; type: organism-based; conditions: in vivo, 720 h
[20] = tested on: Mus musculus; assay: Antiinflammatory activity against DSS-induced C57BL/6 mouse model of subchronic relapsing colitis assessed as reduction in IL6 mRNA level at 0.3 mg/kg, po administered once daily for 14 days starting from day 5 post DSS-challenge by RT-qPCR analysis; type: functional, organism-based
[21] = tested on: Mus musculus; assay: Antiinflammatory activity against DSS-induced C57BL/6 mouse model of subchronic relapsing colitis assessed as reduction in IL6 mRNA level at 0.15 mg/kg, po administered once daily for 14 days starting from day 5 post DSS-challenge cotreated with 20 mg/kg berberine by RT-qPCR analysis; type: functional, organism-based
[22] = tested on: Mus musculus; assay: Antiinflammatory activity against DSS-induced C57BL/6 mouse model of subchronic relapsing colitis assessed as reduction in S1PR1 mRNA level at 0.15 mg/kg, po administered once daily for 14 days starting from day 5 post DSS-challenge cotreated with 20 mg/kg berberine by RT-qPCR analysis; type: functional, organism-based
[23] = tested on: Mus musculus; assay: Effect on total S1PR1 expression in DSS-induced C57BL/6 mouse model of subchronic relapsing colitis at 0.15 mg/kg, po administered once daily for 14 days starting from day 5 post DSS-challenge cotreated with 20 mg/kg berberine by Western blot analysis; type: ADME, organism-based; conditions: in vivo, 336 h
[24] = tested on: THP-1; assay: Antiinflammatory activity in human THP1 cells assessed as reduction in LPS-induced IL6 mRNA level at 1 uM incubated for 1 hr followed by LPS challenge and measured after 4 to 6 hrs by q-PCR method; type: functional, cell-based
[25] = tested on: THP-1; assay: Antiinflammatory activity in human THP1 cells assessed as reduction in LPS-induced IL6 mRNA level at 0.5 uM cotreated with 0.5 uM berberine incubated for 1 hr followed by LPS challenge and measured after 4 to 6 hrs by q-PCR method; type: functional, cell-based
[26] = biological target: Signal transducer and activator of transcription 3 (Homo sapiens) (UniProt P40763); assay: Inhibition of STAT3 activation in human THP1 cells assessed as reduction in LPS-induced phosphorylated STAT3 expression at 1 uM incubated for 1 hr followed by LPS challenge and measured after 4 to 6 hrs by Western blot analysis; type: cell-based; conditions: THP-1
[27] = tested on: Mus musculus; assay: Anti-colitis activity against DSS-induced C57BL/6 mouse model of subchronic relapsing colitis assessed as reduction in phosphorylated STAT3 level at 0.3 mg/kg, po administered once daily for 14 days starting from day 5 post DSS-challenge by Western blot analysis; type: functional, organism-based

Signal transducer and activator of transcription 3 (Homo sapiens), sequence (P40763 whole entry): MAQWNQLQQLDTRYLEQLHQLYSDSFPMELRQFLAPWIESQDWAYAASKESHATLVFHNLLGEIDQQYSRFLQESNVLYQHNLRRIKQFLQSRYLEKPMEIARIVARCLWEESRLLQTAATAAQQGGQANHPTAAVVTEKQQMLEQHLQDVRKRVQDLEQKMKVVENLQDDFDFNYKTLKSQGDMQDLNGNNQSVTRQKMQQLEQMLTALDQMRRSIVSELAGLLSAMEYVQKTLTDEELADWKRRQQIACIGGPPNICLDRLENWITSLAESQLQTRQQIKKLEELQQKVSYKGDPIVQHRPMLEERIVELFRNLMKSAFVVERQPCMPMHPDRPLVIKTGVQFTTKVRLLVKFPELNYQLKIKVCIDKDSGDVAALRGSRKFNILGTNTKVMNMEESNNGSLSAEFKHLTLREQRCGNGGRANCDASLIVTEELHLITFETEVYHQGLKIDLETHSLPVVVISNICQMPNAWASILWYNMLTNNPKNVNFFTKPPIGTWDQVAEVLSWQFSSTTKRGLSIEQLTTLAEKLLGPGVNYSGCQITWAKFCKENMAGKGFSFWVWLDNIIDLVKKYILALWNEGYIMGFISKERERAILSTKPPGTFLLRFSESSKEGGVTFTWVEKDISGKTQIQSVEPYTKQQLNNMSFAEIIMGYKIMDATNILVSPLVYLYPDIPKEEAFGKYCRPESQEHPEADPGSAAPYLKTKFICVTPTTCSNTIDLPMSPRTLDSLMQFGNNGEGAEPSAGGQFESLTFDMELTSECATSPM

In the case of `CCCCCCCCc1ccc(CCC(N)(CO)CO)cc1.Cl` [FINGOLIMOD HYDROCHLORIDE], the Activity [1] was “Active”, the Activity [2] was “Active” and the Activity [3] was “Active”. The Activity [4] was “Active”, the Activity [5] was “inactive” and the Activity [6] was “Active”. The Activity [7] was “Active”, the Activity [8] was “Active” and the Activity [9] was “Active”. The Activity [10] was “Active”, the Activity [11] was “Active” and the Activity [12] was “Active”. The Activity [13] was “Active”, the Activity [14] was “inactive” and the Activity [15] was “Active”. For the same molecule, the Activity [16] was “Active”, the Activity [17] was “Non-Toxic” and the Activity [18] was “Non-Toxic”. For the same molecule, the Activity [19] was “Non-Toxic”, the Activity [20] was “Active” and the Activity [21] was “Active”. The Activity [22] was “Active”, the Activity [23] was “Non-Toxic” and the Activity [24] was “Active”. The Activity [25] was “Active”, the inhibition [26] was “Active” and the Activity [27] was “Active”.
